What all share (format): functional, cell-based
In one assay the test system is MDA-MB-231. In words: Cytotoxicity against human MDA-MB-231 cells assessed as growth inhibition after 48 hrs by methylene blue staining-based assay. As to conditions: for IC50: MDA-MB-231, 48 h.
A further assay concerns MDA-MB-468. Put plainly: Cytotoxicity against human MDA-MB-468 cells assessed as growth inhibition after 48 hrs by methylene blue staining-based assay. The following applies: MDA-MB-468, 48 h.
A further assay concerns BT-474. In words: Cytotoxicity against human BT474 cells assessed as growth inhibition after 48 hrs by methylene blue staining-based assay. As to conditions: BT-474, 48 h.
The test system of another assay is MCF7. Put plainly: Cytotoxicity against human MCF7 cells assessed as growth inhibition after 48 hrs by methylene blue staining-based assay. The following applies: MCF7, 48 h.
For the next assay, the system named is T47D. In words: Cytotoxicity against human T47D cells assessed as growth inhibition after 48 hrs by methylene blue staining-based assay.

Active and inactive are the calls of the source. The calls are words filed in the database; no cut-off is given here.

As for `COc1cc2c(c(OC)c1OC)CCn1c[n+]3c(c1-2)-c1cc(OC)c(OC)c(OC)c1CC3`, in the assay with MDA-MB-231, the outcome was inactive.
As usually defined, the IC50 is the point on the concentration scale where inhibition reaches its midpoint. On to `COc1ccc(CCNC(=O)C(=O)NCCc2ccc(OC)c(OC)c2)cc1OC`, for which the IC50 in the assay with MDA-MB-231 was 45 µM.
On to `COc1ccc2c(c1)CCn1c[n+]3c(c1-2)-c1ccc(OC)cc1CC3`, for which the IC50 in the assay with MDA-MB-231 was found to be 3.9 µM; in the assay with MDA-MB-468 it was 1.8 µM; in the assay on BT-474, 0.3 µM; in the assay with MCF7 it was 1.3 µM; in the assay with T47D it was 1 µM.
For `COc1ccc2c(c1OC)CCn1c[n+]3c(c1-2)-c1ccc(OC)c(OC)c1CC3`, in that order: 18.2 µM, 2.1 µM, 0.7 µM, 7.9 µM and 13.5 µM.
Regarding `COc1ccc2c(c1OC)C(=O)O[C@@H]2[C@H]1c2c(cc3c(c2OC)OCO3)CCN1C` [NOSCAPINE], the IC50 with MDA-MB-231 worked out at 64 µM; with MCF7 it was 57 µM.
Regarding `COc1cc2c(cc1OC)C(C1=NCCc3cc(OC)c(OC)cc31)=NCC2`, the result with MDA-MB-231 was inactive.
Regarding `COc1cc2c(cc1OC)-c1c3[n+](cn1CC2)CCc1cc(OC)c(OC)cc1-3`, the IC50 worked out at 19 µM in the assay with MDA-MB-231; 2.6 µM in the assay with MDA-MB-468; 3.1 µM with BT-474; 35 µM in the assay with MCF7; 34 µM with T47D.

(Values after ChEMBL document CHEMBL3352667, “Anti-tumor activity of novel biisoquinoline derivatives against breast cancers” (Bioorg Med Chem Lett, 2014).)
